# Experimental data reported in patent US12385058B2, “Herbicide tolerance protein, encoding gene thereof and use thereof” (Beijing Dabeinong Biotechnology Co., Ltd., priority 2018, dated 2025).
# Tested on: maize plants
# Test: Herbicide tolerance of transgenic maize T1 plants (spraying, damage degree)
# Assay type: in vivo
# Conditions: 144 g ai/ha (8x Tri.)
# Procedure: The degree of damage caused by the herbicide was measured for each plant according to the plant growth status 3 days after spraying (3 DAT), 7 days after spraying (7 DAT), 14 days after spraying (14 DAT) and 21 days after spraying (21 DAT): a growth status equivalent to that of the untreated plants is defined as having a damage degree of 0%; the case where leaves are locally chlorotic and yellow but the normal plant growth is substantially not affected is defined as having a damage degree of 50%; and the case where the whole plant is purple and dying is defined as having a damage degree of 100%. The maize plants into which the ALT02M1-02 nucleotide sequence was introduced were of three strains in total (S15, S16 and S17), the maize plants into which the ALT02M2-02 nucleotide sequence was introduced were of three strains in total (S18, S19 and S20), the maize plants into which the ALT02M3-02 nucleotide sequence was introduced were of three strains in total (S21, S22 and S23), the maize plants into which the ALT02-02 nucleotide sequence was introduced were of three strains in total (S24, S25 and S26), the control maize plants were of two strains in total (S27 and S28), and the wild-type maize plants were of one strain in total (CK2); and 10-15 plants were selected from each strain and tested.
# [1] = maize genotype CK2 (wild-type maize plants)
# [2] = maize genotype S15 (ALT02M1-02 introduced)
# [3] = maize genotype S16 (ALT02M1-02 introduced)
# [4] = maize genotype S17 (ALT02M1-02 introduced)
# [5] = maize genotype S18 (ALT02M2-02 introduced)
# [6] = maize genotype S19 (ALT02M2-02 introduced)
# [7] = maize genotype S20 (ALT02M2-02 introduced)
# [8] = maize genotype S21 (ALT02M3-02 introduced)
# [9] = maize genotype S22 (ALT02M3-02 introduced)
# [10] = maize genotype S23 (ALT02M3-02 introduced)
# [11] = maize genotype S24 (ALT02-02 introduced)
# [12] = maize genotype S25 (ALT02-02 introduced)
# [13] = maize genotype S26 (ALT02-02 introduced)
# [14] = maize genotype S27 (control maize plants, DBN100830N)
# [15] = maize genotype S28 (control maize plants, DBN100830N)
substance,measurement,setting,value
"methyl 2-[N-(4-methoxy-6-methyl-1,3,5-triazin-2-yl)-N-methylcarbamoylaminosulfonyl]benzoate [tribenuron-methyl]",Average damage % 3DAT,[1],46%
same,Average damage % 7DAT,[1],86%
same,Average damage % 14DAT,[1],100%
same,Average damage % 21DAT,[1],100%
same,Average damage % 3DAT,[2],5%
same,Average damage % 7DAT,[2],0%
same,Average damage % 14DAT,[2],0%
same,Average damage % 21DAT,[2],0%
same,Average damage % 3DAT,[3],6%
same,Average damage % 7DAT,[3],0%
same,Average damage % 14DAT,[3],0%
same,Average damage % 21DAT,[3],0%
same,Average damage % 3DAT,[4],3%
same,Average damage % 7DAT,[4],0%
same,Average damage % 14DAT,[4],0%
same,Average damage % 21DAT,[4],0%
same,Average damage % 3DAT,[5],0%
same,Average damage % 7DAT,[5],0%
same,Average damage % 14DAT,[5],0%
same,Average damage % 21DAT,[5],0%
same,Average damage % 3DAT,[6],0%
same,Average damage % 7DAT,[6],0%
same,Average damage % 14DAT,[6],0%
same,Average damage % 21DAT,[6],0%
same,Average damage % 3DAT,[7],0%
same,Average damage % 7DAT,[7],0%
same,Average damage % 14DAT,[7],0%
same,Average damage % 21DAT,[7],0%
same,Average damage % 3DAT,[8],3%
same,Average damage % 7DAT,[8],0%
same,Average damage % 14DAT,[8],0%
same,Average damage % 21DAT,[8],0%
same,Average damage % 3DAT,[9],2%
same,Average damage % 7DAT,[9],0%
same,Average damage % 14DAT,[9],0%
same,Average damage % 21DAT,[9],0%
same,Average damage % 3DAT,[10],0%
same,Average damage % 7DAT,[10],0%
same,Average damage % 14DAT,[10],0%
same,Average damage % 21DAT,[10],0%
same,Average damage % 3DAT,[11],14%
same,Average damage % 7DAT,[11],5%
same,Average damage % 14DAT,[11],0%
same,Average damage % 21DAT,[11],0%
same,Average damage % 7DAT,[12],4%
same,Average damage % 14DAT,[12],0%
same,Average damage % 21DAT,[12],0%
same,Average damage % 3DAT,[13],20%
same,Average damage % 7DAT,[13],7%
same,Average damage % 14DAT,[13],0%
same,Average damage % 21DAT,[13],0%
same,Average damage % 3DAT,[14],61%
same,Average damage % 7DAT,[14],82%
same,Average damage % 14DAT,[14],100%
same,Average damage % 21DAT,[14],100%
same,Average damage % 3DAT,[15],53%
same,Average damage % 7DAT,[15],78%
same,Average damage % 14DAT,[15],100%
same,Average damage % 21DAT,[15],100%
